# In US10004828B2, “Self-assembled Fmoc-ff hydrogels” (Romat at Tel-Aviv University Ltd., priority 2005, dated 2018):
# Like-named read-outs stand apart in the source and are kept apart here. Where a SMILES comes first, the peptide text is derived from it. The star is where a group is joined. Fmoc = O=C(OCC1c2ccccc2-c2ccccc21)*
# Legend:
# [1] = cited from earlier work
# [2] = HFIP stock, 5 mg/ml
# Description: Determination of water percentage in the gel was done by washing a freshly formed hydrogel with water five times, each time for 15 minutes, followed by weighing the gel, lyophilizing it and weighing the remaining peptide aggregate.
# [3] = for G' (storage modulus): at 1 Hz
# Description: Rheological measurements were performed on AR 2000 controlled stress rheometer (TA Instruments Ltd, Great Britain) operated in cone-plate mode (cone angles 1 and 4 with diameters of 60 and 40 mm, respectively). Small-amplitude oscillatory shear experiments (0.1-10 Hz) were performed within the linear viscoelastic limit. Frequency scans were performed at the lowest stress possible to prevent damage to the sample. The linearity of response was monitored continuously to ascertain linear viscoelasticity.
# To study the biomechanical characteristics of the novel hydrogel, rheology measurements were performed.
# [4] = in vitro; details: CHO cells seeded on the peptide hydrogel
# Description: (§1) For cell growth in vitro experiments Chinese Hamster Ovary (CHO) cells were grown in Dulbecco's Modified Eagle Medium (DMEM) supplemented with 10% Fetal Calf Serum, 100 U/ml penicillin, 100 U/ml streptomycin and 2 mmol/liter L-glutamine (all from Beit Haemek, Israel). Cells were maintained at 37° C. in a humidified atmosphere containing 5% CO2. Sub-confluent cells were harvested by trypsinization, counted and diluted in the cells media to 1×10^5 cells/ml. The gel was washed three times with 0.5 ml water for 30 minutes at a time and was then left overnight in 0.5 ml DMEM. The DMEM was thereafter removed and 500 μl of CHO cells (5×10^4 cells) were added over the hydrogel. After a 24 hour incubation period at 37° C. the viability of the cells was determined using a MTT (3-(4,5-dimethylthiazolyl-2)-2,5-diphenyltetrazolium bromide) assay [Nowak et al., Nature 417, 424 (2002)].
# (§2) In order to exploit whether the peptide-based hydrogel described herein can serve as a scaffold for tissue engineering applications, its biocompatibility was examined using cellular in vitro experiments. Chinese Hamster Ovary (CHO) cells were suspended above the hydrogel after its formation in a […]. After a one-day incubation period the cells were analyzed for viability.
# [5] = system: Chinese Hamster Ovary (CHO) cells; assay: in vitro
# Description: as §1, §2
# [6] = CHO cells on hydrogel from HFIP stock, one-day incubation
Molecule,"G' (storage modulus) ([1]; 5 mg/ml, Tris HCl buffer, at 1 Hz, reported value)","G' (storage modulus) ([1]; 5 mg/ml, Tris HCl buffer, at 1 Hz, reported value, listed as PuraMatrix gel)","G' (storage modulus) ([1]; at 1 Hz frequency, concentration not given)",hydrogel water content [2],"storage modulus G' excess over loss modulus G'' ([3]; HFIP stock, final concentration 5 mg/ml (FIG. 3a))","G' (storage modulus) ([3]; peptide concentration 5 mg/ml, solvent not stated)","G' (storage modulus) ([3]; peptide final concentration 1 mg/ml, stock solution solvent DMSO)","G' (storage modulus) ([3]; peptide final concentration 2 mg/ml, acetone stock solution)","G' (storage modulus) ([3]; peptide final concentration 5 mg/ml, stock solution solvent HFIP)","G' (storage modulus) ([3]; peptide final concentration 5 mg/ml, stock solution solvent HFIP, listed as Fmoc-diphenylalanine)","G' (storage modulus) ([3]; peptide final concentration 5 mg/ml, stock solution solvent acetone)","G' (storage modulus) ([3]; peptide final concentration 10 mg/ml, acetone stock solution (FIG. 3c))",G' relative to that reported for other self-assembled peptide hydrogels ([3]; versus hydrogels formed without chemical cross linking),viability at 24 h [4],"cell morphology [5, 6]","rate of proliferation [5, 6]","cell growth on hydrogel compared with poly lysine ([5]; CHO cells, hydrogel from DMSO stock, final DMSO concentration 1%)"
[COCH3]-RADARADARADARADA-[CONH2] [RADA16 (Puramatrix)],50 Pa,about 50 Pa,about 50 Pa,–,–,–,–,–,–,–,–,–,–,–,–,–,–
"O=C(N[C@@H](Cc1ccccc1)C(=O)N[C@@H](Cc1ccccc1)C(=O)O)OCC1c2ccccc2-c2ccccc21 [Fmoc-Phe-Phe, Fmoc-diphenylalanine] (Fmoc-Phe-Phe-OH)",–,–,–,greater than 99%,about one order of magnitude,about 2×10^4 Pa,"1,000 Pa",about 2×10^3 Pa,"10,000 Pa",about 10^4 Pa,"10,000 Pa",about 2×10^4 Pa,200 fold,> 80%,normal cell morphology,normal rate of proliferation,effective matrix for cell growth
